Data published in patent US20230114728A1 (Venatorx Pharmaceuticals, Inc., priority 2019, published 2023).
Converted amounts (≈) assume the structure as drawn.

Assays:
Assay in all cases: Broth microdilution MIC in CAMHB
Type in all cases: cell-based
A. baumannii ATCC 19606 = settings: Acinetobacter baumannii, ATCC19606; MHB; read-out: Minimum Inhibitory Concentration, A. baumannii ATCC 19606
How it was run: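 Lowest compound concentration with no visible growth after 16-20 h at 37 °C defines MIC. Plates of 2-fold serial dilutions in cation-adjusted Mueller Hinton broth received 2-8×10^5 CFU/mL of exponentially grown cells, per CLSI methods; panel spans reference, hyper-permeable and efflux-pump-deleted strains.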

E. coli 901C = settings: Escherichia coli; E. coli 901C (hyper-permeable); MHB; read-out: Minimum Inhibitory Concentration, E. coli 901C
How it was run: (§1)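 Per CLSI broth microdilution, colonies were grown 3-5 h at 37° C in cation-adjusted Mueller Hinton broth, then diluted to a starting inoculum of 2-8×10^5 CFU/mL against 2-fold serial compound dilutions. Plates were incubated 16-20 h at 37° C, and MIC was read visually as the lowest concentration with no growth.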

E. coli AG100A = settings: Escherichia coli, read-out: Minimum Inhibitory Concentration, E. coli AG100A
How it was run: as §1

E. coli AG100 = settings: Escherichia coli; E. coli AG100 (wild-type parent); MHB; read-out: Minimum Inhibitory Concentration, E. coli AG100
How it was run: as §1

E. coli ATCC 25922 = settings: Escherichia coli, ATCC25922; E. coli ATCC 25922; MHB; read-out: Minimum Inhibitory Concentration, E. coli 25922
How it was run: as §1

E. coli D22 = settings: Escherichia coli; E. coli D22 (hyper-permeable); MHB; read-out: Minimum Inhibitory Concentration, E. coli D22
How it was run: as §1

[1] = system: K. pneumoniae 848844 producing SHV-11 and KPC-2; settings: Klebsiella pneumoniae, read-out: Minimum Inhibitory Concentration, K. pneumoniae 848844
How it was run: as §1

[2] = system: K. pneumoniae SI-117 producing VIM-1; settings: Klebsiella pneumoniae, read-out: Minimum Inhibitory Concentration, K. pneumoniae SI-117
How it was run: as §1

[3] = system: K. pneumoniae UMM producing SHV-5 and KPC-2; settings: Klebsiella pneumoniae, read-out: Minimum Inhibitory Concentration, K. pneumoniae UMM
How it was run: as §1

[4] = system: P. aeruginosa (ΔmexAB-oprM); settings: Pseudomonas aeruginosa, read-out: Minimum Inhibitory Concentration, P. aeruginosa ΔmexAB-OprM
How it was run: as §1

P. aeruginosa ATCC 27853 = settings: Pseudomonas aeruginosa, ATCC27853; MHB; read-out: Minimum Inhibitory Concentration, P. aeruginosa ATCC 27853
How it was run: as §1

P. aeruginosa ATCC 35151 = settings: Pseudomonas aeruginosa, ATCC35151; MHB; hyper-permeable strain; read-out: Minimum Inhibitory Concentration, P. aeruginosa ATCC 35151
How it was run: as §1

| SMILES | MIC (A. baumannii ATCC 19606) | MIC (E. coli 901C) | MIC (E. coli AG100A) | MIC (E. coli AG100) | MIC (E. coli ATCC 25922) | MIC (E. coli D22) | MIC [1] | MIC [2] | MIC [3] | MIC [4] | MIC (P. aeruginosa ATCC 27853) | MIC (P. aeruginosa ATCC 35151) |
| --- | --- | --- | --- | --- | --- | --- | --- | --- | --- | --- | --- | --- |
| CCN1CCN(C(=O)N[C@@H](C(=O)N[C@H]2Cc3cccc(C(=O)O)c3OB2O)c2c(O)cc(O)cc2F)C(=O)C1=O (single isomer, unassigned) [Example 182] | 32 to 64 µg/mL (≈ 57.3 to 115 µM) | < 0.25 µg/mL | 0.5 to 1 µg/mL (≈ 0.896 to 1.79 µM) | 8 to 16 µg/mL (≈ 14.3 to 28.7 µM) | 8 to 16 µg/mL (≈ 14.3 to 28.7 µM) | 0.5 to 1 µg/mL (≈ 0.896 to 1.79 µM) | 32 to 64 µg/mL (≈ 57.3 to 115 µM) | 32 to 64 µg/mL (≈ 57.3 to 115 µM) | 8 to 16 µg/mL (≈ 14.3 to 28.7 µM) | 8 to 16 µg/mL (≈ 14.3 to 28.7 µM) | > 128 µg/mL | 2 to 4 µg/mL (≈ 3.58 to 7.16 µM) |
| NCCN1CCN(C(=O)N[C@@H](C(=O)N[C@H]2Cc3cccc(C(=O)O)c3OB2O)c2ccc(O)c(Cl)c2F)C(=O)C1=O (single isomer, unassigned) [Example 186] | > 128 µg/mL | 0.5 to 1 µg/mL (≈ 0.845 to 1.69 µM) | 2 to 4 µg/mL (≈ 3.38 to 6.76 µM) | 8 to 16 µg/mL (≈ 13.5 to 27 µM) | 8 to 16 µg/mL (≈ 13.5 to 27 µM) | 2 to 4 µg/mL (≈ 3.38 to 6.76 µM) | 32 to 64 µg/mL (≈ 54.1 to 108 µM) | 32 to 64 µg/mL (≈ 54.1 to 108 µM) | 32 to 64 µg/mL (≈ 54.1 to 108 µM) | 8 to 16 µg/mL (≈ 13.5 to 27 µM) | 32 to 64 µg/mL (≈ 54.1 to 108 µM) | < 0.25 µg/mL |
| NCCN1CCN(C(=O)N[C@H](C(=O)N[C@H]2Cc3cccc(C(=O)O)c3OB2O)c2ccc(O)c(Cl)c2F)C(=O)C1=O (single isomer, unassigned) [Example 187] | > 128 µg/mL | 2 to 4 µg/mL (≈ 3.38 to 6.76 µM) | 8 to 16 µg/mL (≈ 13.5 to 27 µM) | > 128 µg/mL | > 128 µg/mL | 32 to 64 µg/mL (≈ 54.1 to 108 µM) | > 128 µg/mL | > 128 µg/mL | > 128 µg/mL | 32 to 64 µg/mL (≈ 54.1 to 108 µM) | > 128 µg/mL | 2 to 4 µg/mL (≈ 3.38 to 6.76 µM) |
| CS(=O)(=O)N1CCN(C(=O)N[C@@H](C(=O)N[C@H]2Cc3ccc(F)c(C(=O)O)c3OB2O)c2cc(F)c(O)c(O)c2Cl)C1=O (single isomer, unassigned) [Example 189] | 0.5 to 1 µg/mL (≈ 0.79 to 1.58 µM) | 0.5 to 1 µg/mL (≈ 0.79 to 1.58 µM) | 2 to 4 µg/mL (≈ 3.16 to 6.32 µM) | 8 to 16 µg/mL (≈ 12.6 to 25.3 µM) | 2 to 4 µg/mL (≈ 3.16 to 6.32 µM) | 0.5 to 1 µg/mL (≈ 0.79 to 1.58 µM) | 2 to 4 µg/mL (≈ 3.16 to 6.32 µM) | 8 to 16 µg/mL (≈ 12.6 to 25.3 µM) | > 128 µg/mL | 8 to 16 µg/mL (≈ 12.6 to 25.3 µM) | 2 to 4 µg/mL (≈ 3.16 to 6.32 µM) | 0.5 to 1 µg/mL (≈ 0.79 to 1.58 µM) |
| O=C(NCCCN1CCN(C(=O)NC(C(=O)N[C@H]2Cc3cccc(C(=O)O)c3OB2O)c2ncc(O)cc2F)C(=O)C1=O)c1ccc(O)c(O)c1Cl (stereo partly drawn) [Example 1, (3R)-3-(2-(4-(3-(2-chloro-3,4-dihydroxybenzamido)propyl)-2,3-dioxopiperazine-1-carboxamido)-2-(3-fluoro-5-hydroxypyridin-2-yl)acetamido)-2-hydroxy-3,4-dihydro-2H-benzo[e][1,2]oxaborinine-8-carboxylic acid] | – | 8 to 16 µg/mL (≈ 10.8 to 21.5 µM) | 8 to 16 µg/mL (≈ 10.8 to 21.5 µM) | 32 to 64 µg/mL (≈ 43.1 to 86.2 µM) | > 128 µg/mL | 8 to 16 µg/mL (≈ 10.8 to 21.5 µM) | 32 to 64 µg/mL (≈ 43.1 to 86.2 µM) | 32 to 64 µg/mL (≈ 43.1 to 86.2 µM) | 8 to 16 µg/mL (≈ 10.8 to 21.5 µM) | – | – | – |
| C[C@H]1CN(CCNC(=O)c2ccc(O)c(O)c2Cl)C(=O)C(=O)N1C(=O)NC(C(=O)N[C@H]1Cc2cccc(C(=O)O)c2OB1O)c1ncc(O)cc1F (stereo partly drawn) [Example 2, (3R)-3-(2-((S)-4-(2-(2-chloro-3,4-dihydroxybenzamido)ethyl)-6-methyl-2,3-dioxopiperazine-1-carboxamido)-2-(3-fluoro-5-hydroxypyridin-2-yl)acetamido)-2-hydroxy-3,4-dihydro-2H-benzo[e][1,2]oxaborinine-8-carboxylic acid] | – | 0.5 to 1 µg/mL (≈ 0.673 to 1.35 µM) | 0.5 to 1 µg/mL (≈ 0.673 to 1.35 µM) | 2 to 4 µg/mL (≈ 2.69 to 5.38 µM) | 8 to 16 µg/mL (≈ 10.8 to 21.5 µM) | 2 to 4 µg/mL (≈ 2.69 to 5.38 µM) | 8 to 16 µg/mL (≈ 10.8 to 21.5 µM) | 8 to 16 µg/mL (≈ 10.8 to 21.5 µM) | 2 to 4 µg/mL (≈ 2.69 to 5.38 µM) | – | – | – |
| O=C(NCCCN1CCN(C(=O)NC(C(=O)N[C@H]2Cc3ccc(F)c(C(=O)O)c3OB2O)c2ncc(O)cc2F)C(=O)C1=O)c1ccc(O)c(O)c1Cl (stereo partly drawn) [Example 3, (3R)-3-(2-(4-(3-(2-chloro-3,4-dihydroxybenzamido)propyl)-2,3-dioxopiperazine-1-carboxamido)-2-(3-fluoro-5-hydroxypyridin-2-yl)acetamido)-7-fluoro-2-hydroxy-3,4-dihydro-2H-benzo[e][1,2]oxaborinine-8-carboxylic acid] | – | 8 to 16 µg/mL (≈ 10.5 to 21 µM) | 32 to 64 µg/mL (≈ 42.1 to 84.1 µM) | 32 to 64 µg/mL (≈ 42.1 to 84.1 µM) | > 128 µg/mL | 32 to 64 µg/mL (≈ 42.1 to 84.1 µM) | 32 to 64 µg/mL (≈ 42.1 to 84.1 µM) | > 128 µg/mL | 32 to 64 µg/mL (≈ 42.1 to 84.1 µM) | – | – | – |
